Patent US20230407373A1 (priority 2020, published 2023)
Where two headings read alike, the source gives them in different places.

How the values were obtained:
Format in all cases: binding
HCoV-OC43 gRNA and sgRNA = settings: for target (unweighted spectral count, OC43 Probe II) / background (unweighted spectral count, no-probe control): type n_48_v, 48 hpi; for target (unweighted spectral count, OC43 Probe II): OC43 Probe II capture on infected cells; for background (unweighted spectral count, no-probe control): no-probe control on infected cells; for target (unweighted spectral count, OC43 Probe II capture) / target (unweighted spectral count): tested against no-probe control; for target (unweighted spectral count, OC43 Probe II capture): FDR<10%; for target (unweighted spectral count): OC43 Probe II, infected cells; for target (spectral count) / background (spectral count): type s_36_m, Probe II; for target (spectral count): HCoV-OC43-infected HCT-8 cells; for background (spectral count): uninfected-probe control
gRNA of HCoV-OC43 = settings: for target (spectral count, OC43 Probe I RNP capture) / background (spectral count, no-probe control): type n_48_v: 48 hours post-infection; for target (spectral count, OC43 Probe I RNP capture): infected cells, unweighted spectral count; for background (spectral count, no-probe control): no-probe control on infected cells; for target (spectral count) / background (spectral count): type g_36_m, 36 hpi, Probe I; for target (spectral count): HCoV-OC43-infected HCT-8 cells; for background (spectral count): uninfected-probe control
[1] = system: SARS-CoV-2 gRNA and sgRNAs; settings: for target (unweighted spectral count in RNP capture): Probe II capture, LC-MS/MS LFQ; for background (unweighted spectral count in control): no-probe control pull-down, used as background for Probe II
SARS-CoV-2 gRNA = settings: for target (unweighted spectral count in RNP capture): Probe I capture, LC-MS/MS LFQ; for background (unweighted spectral count in control): no-probe control pull-down, used as background for Probe I; for target (unweighted spectral count of the protein in the RNP capture): LC-MS/MS, Probe I sample (first 199 lines of Table 2)

## ABCF1
HCoV-OC43 gRNA and sgRNA
  target (unweighted spectral count, OC43 Probe II): 5
  background (unweighted spectral count, no-probe control): 1
gRNA of HCoV-OC43
  target (spectral count, OC43 Probe I RNP capture): 7
  background (spectral count, no-probe control): 1

## AKAP8
HCoV-OC43 gRNA and sgRNA; 36 hpi, type n_36_v
  target (unweighted spectral count, OC43 Probe II capture): 4

## ATP13A1
HCoV-OC43 gRNA and sgRNA; 36 hpi, type n_36_v
  target (unweighted spectral count, OC43 Probe II capture): 6

## C19orf66
HCoV-OC43 gRNA and sgRNA; 36 hpi, type n_36_v
  target (unweighted spectral count, OC43 Probe II capture): 4
HCoV-OC43 gRNA and sgRNA
  target (unweighted spectral count, OC43 Probe II): 6
  background (unweighted spectral count, no-probe control): 1

## CCAR2: host protein, UniProt Q8N163
HCoV-OC43 gRNA and sgRNA; 36 hpi, type n_36_v
  target (unweighted spectral count, OC43 Probe II capture): 12
HCoV-OC43 gRNA and sgRNA; 24 hpi (type n_24_v)
  target (unweighted spectral count): 8
HCoV-OC43 gRNA and sgRNA
  target (unweighted spectral count, OC43 Probe II): 20
  background (unweighted spectral count, no-probe control): 1
HCoV-OC43 gRNA and sgRNA; 36 hpi
  target (spectral count): 12
  background (spectral count): 1
gRNA of HCoV-OC43
  target (spectral count): 20
  background (spectral count): 1
  target (spectral count, OC43 Probe I RNP capture): 23
  background (spectral count, no-probe control): 1

## DDX39B
HCoV-OC43 gRNA and sgRNA
  target (unweighted spectral count, OC43 Probe II): 6
  background (unweighted spectral count, no-probe control): 1
gRNA of HCoV-OC43
  target (spectral count, OC43 Probe I RNP capture): 5
  background (spectral count, no-probe control): 1

## DDX54
HCoV-OC43 gRNA and sgRNA; 36 hpi, type n_36_v
  target (unweighted spectral count, OC43 Probe II capture): 5

## EEF1G
HCoV-OC43 gRNA and sgRNA; 36 hpi, type n_36_v
  target (unweighted spectral count, OC43 Probe II capture): 4

## EIF4A1
HCoV-OC43 gRNA and sgRNA; 24 hpi (type n_24_v)
  target (unweighted spectral count): 5
[1]; […]
  target (unweighted spectral count in RNP capture): 8
[1]
  background (unweighted spectral count in control): 1

## EIF4G1: host protein, UniProt Q04637
HCoV-OC43 gRNA and sgRNA; 24 hpi, type n_24_v
  target (unweighted spectral count, OC43 Probe II capture): 4
HCoV-OC43 gRNA and sgRNA; 36 hpi, type n_36_v
  target (unweighted spectral count, OC43 Probe II capture): 7
HCoV-OC43 gRNA and sgRNA; 36 hpi
  target (spectral count): 7
  background (spectral count): 1
[1]; […]
  target (unweighted spectral count in RNP capture): 18
[1]
  background (unweighted spectral count in control): 1

## ENO1
[1]; […]
  target (unweighted spectral count in RNP capture): 22
[1]
  background (unweighted spectral count in control): 4

## ESYT1
HCoV-OC43 gRNA and sgRNA; 36 hpi, type n_36_v
  target (unweighted spectral count, OC43 Probe II capture): 4

## EZR
SARS-CoV-2 gRNA
  target (unweighted spectral count in RNP capture): 5
  background (unweighted spectral count in control): 1

## FAM125A
[1]; […]
  target (unweighted spectral count in RNP capture): 97

## FXR2
HCoV-OC43 gRNA and sgRNA; 36 hpi, type n_36_v
  target (unweighted spectral count, OC43 Probe II capture): 5
HCoV-OC43 gRNA and sgRNA
  target (unweighted spectral count, OC43 Probe II): 7
  background (unweighted spectral count, no-probe control): 1
[1]; […]
  target (unweighted spectral count in RNP capture): 23
[1]
  background (unweighted spectral count in control): 1
gRNA of HCoV-OC43
  target (spectral count, OC43 Probe I RNP capture): 7
  background (spectral count, no-probe control): 1

## GAPDH
[1]; […]
  target (unweighted spectral count in RNP capture): 12
[1]
  background (unweighted spectral count in control): 1

## GAPDM
SARS-CoV-2 gRNA
  target (unweighted spectral count of the protein in the RNP capture): 7

## GEMIN5
[1]; […], LC-MS/MS label-free quantification, probe pool not given
  target (unweighted spectral count of the protein in the RNP capture experiment): 5
[1]; protein background of the control (e.g. no-probe) experiment, […]
  back-ground (unweighted spectral count of the protein in the control experiment): 1

## H2AFY
HCoV-OC43 gRNA and sgRNA; 12 hpi (type n_12_v)
  target (unweighted spectral count): 4

## HELZ2: host protein, UniProt Q9BYK8
HCoV-OC43 gRNA and sgRNA; 36 hpi, type n_36_v
  target (unweighted spectral count, OC43 Probe II capture): 16
HCoV-OC43 gRNA and sgRNA
  target (unweighted spectral count, OC43 Probe II): 20
  background (unweighted spectral count, no-probe control): 1
HCoV-OC43 gRNA and sgRNA; 36 hpi
  target (spectral count): 16
  background (spectral count): 1
gRNA of HCoV-OC43
  target (spectral count): 11
  background (spectral count): 1
  target (spectral count, OC43 Probe I RNP capture): 8
  background (spectral count, no-probe control): 1

## HIST1H1C
HCoV-OC43 gRNA and sgRNA; 12 hpi (type n_12_v)
  target (unweighted spectral count): 7

## HNRNPK: host protein, UniProt P61978
HCoV-OC43 gRNA and sgRNA; 36 hpi, type n_36_v
  target (unweighted spectral count, OC43 Probe II capture): 66
HCoV-OC43 gRNA and sgRNA; 24 hpi (type n_24_v)
  target (unweighted spectral count): 28
HCoV-OC43 gRNA and sgRNA
  target (unweighted spectral count, OC43 Probe II): 63
  background (unweighted spectral count, no-probe control): 8
HCoV-OC43 gRNA and sgRNA; 36 hpi
  target (spectral count): 66
  background (spectral count): 12
[1]; […]
  target (unweighted spectral count in RNP capture): 52
[1]
  background (unweighted spectral count in control): 1
gRNA of HCoV-OC43
  target (spectral count): 65
  background (spectral count): 16
  target (spectral count, OC43 Probe I RNP capture): 64
  background (spectral count, no-probe control): 8

## HSPA1B
HCoV-OC43 gRNA and sgRNA; 36 hpi, type n_36_v
  target (unweighted spectral count, OC43 Probe II capture): 4

## HSPB1
SARS-CoV-2 gRNA
  target (unweighted spectral count in RNP capture): 5
  background (unweighted spectral count in control): 1

## KHDR ? S1
gRNA of HCoV-OC43
  target (spectral count, OC43 Probe I RNP capture): 18
  background (spectral count, no-probe control): 1

## KHDRB51
[1]; […]
  target (unweighted spectral count in RNP capture): 13
[1]
  background (unweighted spectral count in control): 1

## KHDRBS1: host protein, UniProt Q07666
HCoV-OC43 gRNA and sgRNA; 36 hpi, type n_36_v
  target (unweighted spectral count, OC43 Probe II capture): 12
HCoV-OC43 gRNA and sgRNA; 24 hpi (type n_24_v)
  target (unweighted spectral count): 10
HCoV-OC43 gRNA and sgRNA
  target (unweighted spectral count, OC43 Probe II): 14
  background (unweighted spectral count, no-probe control): 1
HCoV-OC43 gRNA and sgRNA; 36 hpi
  target (spectral count): 12
  background (spectral count): 2
gRNA of HCoV-OC43
  target (spectral count): 13
  background (spectral count): 2

## KHORBS1
SARS-CoV-2 gRNA
  target (unweighted spectral count of the protein in the RNP capture): 19
